Measurements published in patent US4897391A, “Tricyclic anti-allergy, antiinflammatory and anti-hyperproliferative compounds” (Schering Corporation, priority 1988, dated 1990).

Columns and labels:
[1] = system: Peptidoleukotriene Release in Guinea Pig Lung; assay: Peptidoleukotriene Release Inhibition in Lung Assay; assay type: cell-based; conditions: Cavia porcellus; final concentration of 50 μm (so in the source); ovalbumin challenge, sensitized guinea pig lung
From the text: The anti-allergy method of this invention is identified by tests that measure inhibition of leukotriene release in sensitized guinea pigs by compounds of the invention. This procedure is as follows.
First, kill sensitized guinea pigs by a blow to the head, remove the lungs and clean them of visible connective tissue, trachea and large blood vessels. Slice the lungs from individual animals into fragments approximately 1 mm in thickness using a McIlwain tissue chopper and wash them with oxygenated Tyrode's buffer. Transfer weighed aliquots (approximately 400 mg wet weight) of lung into vials containing 2 ml of fresh Tyrode's solution (containing 10 mM cysteine) and incubate in the presence or absence of test compound for 12 minutes at 37° C., challenge the tissues with 20 μg ovalbumin/ml (final concentration) and incubate for 15 minutes. To measure leukotriene release, extract an aliquot of supernatant fluid with 4 volumes of 100% ethanol. After removal of the precipitated protein, dry the clear fluid under a stream of N2 gas. Measure the leukotriene content by a radioimmunoassay using [^3 H]LTC4 (leukotriene C4) and antiserum obtained from New England Nuclear. […] Calculate percent inhibition of leukotriene release by comparing for each lung the release in the presence of the test compound to that in the absence of test compound.

[2] = target: T1, 5-lipoxygenase (Mus musculus, UniProt P48999); assay: 5-Lipoxygenase Assay (MC-9 mast cells, 5-HETE and LTC4 production); assay type: cell-based, murine; conditions: MC9, 50 μM dose; MC-9 cells; read-out: % Inhibition 5-HETE
T1 construct: Preincubate MC-9 cells (0.39 ml at 7.5×10^6 cells/ml) without or with test compound; endogenous in cells; host or cells: MC-9 murine mast cell clone (interleukin-3-dependent)
T1 sequence (P48999 1-674): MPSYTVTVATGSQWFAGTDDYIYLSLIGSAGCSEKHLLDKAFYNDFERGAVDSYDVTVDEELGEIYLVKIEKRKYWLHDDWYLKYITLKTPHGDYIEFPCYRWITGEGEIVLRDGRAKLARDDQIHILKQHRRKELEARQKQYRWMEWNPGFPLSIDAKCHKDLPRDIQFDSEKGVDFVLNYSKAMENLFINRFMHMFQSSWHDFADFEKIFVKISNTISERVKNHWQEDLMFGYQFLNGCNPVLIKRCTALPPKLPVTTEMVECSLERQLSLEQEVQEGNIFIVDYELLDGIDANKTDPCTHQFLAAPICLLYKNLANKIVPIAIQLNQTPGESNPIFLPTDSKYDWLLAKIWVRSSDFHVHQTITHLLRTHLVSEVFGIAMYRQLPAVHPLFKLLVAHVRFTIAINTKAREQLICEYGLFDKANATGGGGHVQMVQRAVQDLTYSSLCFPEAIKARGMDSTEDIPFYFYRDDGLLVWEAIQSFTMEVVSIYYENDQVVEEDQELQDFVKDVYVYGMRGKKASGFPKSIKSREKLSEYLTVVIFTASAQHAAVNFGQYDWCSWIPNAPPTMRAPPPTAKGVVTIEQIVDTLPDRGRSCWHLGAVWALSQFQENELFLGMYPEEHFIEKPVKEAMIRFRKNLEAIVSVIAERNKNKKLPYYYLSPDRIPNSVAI
Protocol: Preincubate MC-9 cells (0.39 ml at 7.5×10^6 cells/ml) without or with test compound dissolved in dimethylsulfoxide (DMSO) vehicle (to a final volume 1 μl) for 4 minutes then incubate for 5 minutes with [^14 C]arachidonic acid (Amersham, 59 Ci/mole) at a 9 μM final concentration, and A23187 (Calbiochem) at a 1 μM final concentration in 10 μl of water:ethanol (9:1). Stop the reaction by addition of methanol (0.4 ml), and remove cellular debris by centrifugation. Run aliquots (250 μl) of the incubations on a Waters two-pump HPLC system fitted with a Waters radial compression column (C18, 10 micron, 8×100 mm, micro-Bondapak) and C18 "Guard Pak". Initially elute the column at 3 ml/min with water:methanol:acetic acid (67:33:0.08) containing 1 mM EDTA adjusted to pH 6.0 with ammonium hydroxide (Pump A). At 4 minutes, establish a linear gradient to reach 100% methanol (Pump B) at 9 minutes. Between 13 and 14 minutes, exchange for the initial eluting solvent and by 19 minutes the column will be reequilibrated for the next sample. Analyze the effluent by a continuous flow radioactivity monitor (model ROMONA-D) interfaced with a Hewlett Packard Lab Automation System for quantitation of radioactive products. […] Doses in table 2 are 50 μM unless otherwise noted.

[3] = system: Reversed Passive Arthus Reaction (paw swelling); assay: Reversed Passive Arthus Reaction (RPAR) Assay; assay type: in vivo, Male Lewis inbred albino rats; conditions: 50 mg/kg p.o.; rat
From the text: Male Lewis inbred albino rats weighing 180-220 grams obtained from Charles River Breeding Laboratories are used in these experiments. House the rats 3 animals/cage and allow food and water ad libitum. Number the animals 1 to 3 in each cage and color mark them for identification purposes.
Prepare all reagents and drugs just prior to the study. Without shaking, solubilize crystallized and lyophilized bovine serum albumin (BSA), obtained from Sigma Chemical Company, in cold sterile pyrogen-free saline (10 mg/ml PFS). Suspend lyophilized anti-bovine serum albumin (IgG Fraction), obtained from Cappel Laboratories, in sterile distilled water and dilute with cold pyrogen-free saline (PFS) just prior to use. The final concentration of anti-bovine serum albumin will be 0.5 mg/ml of PFS. Both BSA and anti-BSA solutions should be iced during use. Suspend or solubilize drugs in an aqueous solution of methyl cellulose (MC) with a homogenizer just prior to administration.
Dose groups of animals (6/group) with drug in methyl cellulose (MC) by gastric lavage one hour prior to sensitization with BSA. Give controls MC alone and include drug-standard in each assay for verification purposes. Prepare drugs so as to provide a dose for a 200 gram animal which is equivalent to the mg/kg dose for the experiment. Thus each rat receives an oral dose in a volume of approximately 2.0 ml. […]

For `COc1cc(OC)c2c(C)c3n(c(=O)c2c1)CCCC3` [Compound E, 8,10-bis(methoxy)-1,2,3,4-tetrahydro-11-methyl-6H-benzo[b]quinolizin-6-one], which inhibition at 50 µM [1] is on record?
The inhibition at 50 µM was 33%.

What about the inhibition at 50 µM [2] of the same molecule?
The inhibition at 50 µM was 8%.

What about the “inhibition of paw swelling” value [3] of the same molecule?
The value was 59%.
